# Measured values as given in publication PMC10982999, “Structure-Guided Design and Optimization of Covalent VHL-Targeted Sulfonyl Fluoride PROTACs” (Journal of Medicinal Chemistry, 2024).
# How the values were obtained:
# [1] = target: T1, BRD4 (HEK293 HiBiT-BRD4 Cln3 cells) (Homo sapiens, UniProt O60885); assay: BRD4 HiBiT degradation assay; assay type: cell-based
# T1 construct: GSK; host or cells: HEK293 HiBiT-BRD4 Cln3
# Procedure: Figure 3 (A) Structure of BRD-SF2. […] BRD4 and loading control GAPDH levels were visualized by Western blotting. […] (D) HEK293 HiBiT-BRD4 Cln3 cells were treated with epoxomicin (1 μM) for 3 h, followed by the respective PROTAC or VHL-SF2 dose-dependently (75–0.01 μM) for 18 h. […] (E) HEK293 HiBiT-BRD4 Cln3 cells were treated with MLN4924 (1 μM) for 3 h, followed by the respective PROTAC or VHL-SF2 dose-dependently (75–0.01 μM) for 18 h. […] (F) Structure of AR-VHL-SF2 and AR2-VHL-SF2. […] The data the show mean ± SEM (n = 3).
# (§1) Cellular BRD4/AR HiBiT assay
# The HiBiT tagged cells were seeded at 10,000 cells per well in a 384-well plate (Thermo Scientific, 164610) at 25 µL per well in DMEM media containing 10% FBS and incubated overnight. Compounds were dispensed using D300e Digital Dispenser (HP) and normalized to 0.1% DMSO. Cells were pre-treated with Epoxomicin or MLN4924 for 3 h before treatment or directly with the PROTAC degraders for 18 or 24 h. Nano -Glo HiBiT lytic detection assay was performed as described in the manufacturer protocol (Promega). 25 µL of premixed detection reagent was added to each well of the 384 well assay plate and incubated for 15 min on an orbital shaker (at 600 RPM), and luminescence was read using a PHERAstar FS plate reader (BMG Labtech). Corresponding background RLU values were subtracted from DMSO control values and the percentage of protein (%) of were then calculated against […]
# (§2) DMSO-treated controls. […]
# [2] = target: T2, AR (AR-HiBiT LNCaP cells) (Homo sapiens, UniProt P10275, T878A); assay: AR HiBiT degradation assay; assay type: cell-based; settings: read-out: AR DC50
# T2 construct: host or cells: AR-HiBiT KI LNCaP
# T2 sequence (P10275 1-920 T878A): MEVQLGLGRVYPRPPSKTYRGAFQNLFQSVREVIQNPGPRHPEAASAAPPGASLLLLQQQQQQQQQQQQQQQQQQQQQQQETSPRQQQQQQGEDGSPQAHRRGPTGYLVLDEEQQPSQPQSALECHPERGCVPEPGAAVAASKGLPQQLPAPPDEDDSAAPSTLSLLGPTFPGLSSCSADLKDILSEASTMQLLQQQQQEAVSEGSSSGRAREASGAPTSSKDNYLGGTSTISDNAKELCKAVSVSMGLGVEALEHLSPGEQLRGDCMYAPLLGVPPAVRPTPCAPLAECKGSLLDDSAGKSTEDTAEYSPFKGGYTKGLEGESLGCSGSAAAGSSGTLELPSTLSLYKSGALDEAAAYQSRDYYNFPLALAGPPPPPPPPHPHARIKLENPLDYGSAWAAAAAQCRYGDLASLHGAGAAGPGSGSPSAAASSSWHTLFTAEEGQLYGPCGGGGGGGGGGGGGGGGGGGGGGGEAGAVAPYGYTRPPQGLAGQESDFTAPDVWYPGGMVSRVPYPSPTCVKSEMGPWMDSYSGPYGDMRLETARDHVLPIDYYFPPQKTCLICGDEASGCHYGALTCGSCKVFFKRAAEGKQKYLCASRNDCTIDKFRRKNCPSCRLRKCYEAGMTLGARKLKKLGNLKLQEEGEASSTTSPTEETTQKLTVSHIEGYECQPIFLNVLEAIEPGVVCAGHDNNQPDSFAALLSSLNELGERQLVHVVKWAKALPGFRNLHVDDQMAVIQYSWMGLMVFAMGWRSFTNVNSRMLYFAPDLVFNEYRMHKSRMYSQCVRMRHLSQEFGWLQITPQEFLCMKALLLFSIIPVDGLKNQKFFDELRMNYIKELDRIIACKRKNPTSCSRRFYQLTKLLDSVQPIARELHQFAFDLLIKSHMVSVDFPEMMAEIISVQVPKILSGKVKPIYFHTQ
# Procedure: as §1
# The HiBiT tagged cells were seeded at 10,000 cells per well in a 384-well plate (Thermo Scientific, 164610) at 25 µL per well in DMEM media containing 10% FBS and incubated overnight. Compounds were dispensed using D300e Digital Dispenser (HP) and normalized to 0.1% DMSO. Cells were pre-treated with Epoxomicin or MLN4924 for 3 h before treatment […]
# Nano -Glo HiBiT lytic detection assay was performed as described in the manufacturer protocol (Promega). 25 µL of premixed detection reagent was added to each well of the 384 well assay plate and incubated for 15 min on an orbital shaker (at 600 RPM), and luminescence was read using a PHERAstar FS plate reader (BMG Labtech). Corresponding background RLU values were subtracted from DMSO control values and the percentage of protein (%) of were then calculated against […]
# as §2
# 1:1000 WB), Tubulin (Sigma #4967S 1:5000 WB).
# BRD4-HiBiT HEK293T cells = settings: 18 h, 70-0.01 μM
smiles,measurement,setting,value
"Cc1cc([C@H](C(=O)N2C[C@H](S(=O)(=O)F)C[C@H]2C(=O)N[C@@H](CC(=O)OC(C)(C)C)c2ccc(-c3scnc3C)cc2)C(C)C)on1 [VHL-SF2, tert-Butyl (S)-3-((2S,4R)-4-(Fluorosulfonyl)-1-((R)-3-methyl-2-(3-methylisoxazol-5-yl)butanoyl)pyrr-olidine-2-carboxamido)-3-(4-(4-methylthiazol-5-yl)phenyl)propanoate]",effect on BRD4 levels,"[1]; 18 h, 75 μM-1 pM",did not affect BRD4 levels
same,DC50,[1]; read-out: BRD4 DC50,> 75 µM
same,DC50,[2],> 75 µM
same,cytotoxicity (CellTiter-Glo),BRD4-HiBiT HEK293T cells,no evidence of cytotoxicity
